Consider three molecules from patent US9738634B2, “Heterocyclic amide compound and herbicide” (SYNGENTA PARTICIPATIONS AG, priority 2013, dated 2017).

Holding throughout (type): in vivo
Data set [1] relates to black-grass. In words: Test Example 3: weedkilling efficacy through soil treatment; H: black-grass. Put shortly:
(§1)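 Crop and weed responses were judged three weeks after a uniform surface spray of the water-diluted emulsion at the given g/ha rate. Seeds sat beneath about 1.5 cm of sterilized diluvial soil, and boxes stood in a greenhouse at 25 to 30° C.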

Data set [2] relates to Italian ryegrass. In words: Test Example 3: weedkilling efficacy through soil treatment; I: Italian ryegrass. In outline: as §1
Data set [3] has as its system common wind-grass. Kind of data set: Test Example 3: weedkilling efficacy through soil treatment; J: common wind-grass. In outline:
as §1

Data set [4] relates to wheat. Kind of data set: Test Example 3: soil treatment, effect on crop; e: wheat. In outline:
as §1

Data set [5] deals with rapeseed. In words: Test Example 3: soil treatment, effect on crop; g: rapeseed. The following applies: treatment dosage 80 g/ha. Put shortly: as §1
For data set [6], the system named is black-grass. Kind of data set: Test Example 4: weedkilling efficacy by foliar treatment; H: black-grass. Put shortly:
(§2)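 Seeds are spot-sown into sterilized diluvial soil and covered with about 1.5 cm of soil. After 14 days' greenhouse growth at 25 to 30° C, plants are sprayed on stems and leaves with diluted emulsion at the stated g/ha rate, then scored at 3 weeks.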

Data set [7] relates to Italian ryegrass. In words: Test Example 4: weedkilling efficacy by foliar treatment; I: Italian ryegrass. Put shortly:
as §2

The subject of data set [8] is common wind-grass. Kind of data set: Test Example 4: weedkilling efficacy by foliar treatment; J: common wind-grass. The procedure: (§3) Testing of Weedkilling Efficacy by Foliar Treatment
(§4) Sterilized diluvial soil was introduced into 21 cm long, 13 cm wide, 7 cm deep plastic boxes, and seeds of crabgrass, green foxtail, barnyard grass, wild oat, black-grass, Italian ryegrass, common wind-grass, Indian mallow, redroot pigweed, fig-leafed goosefoot, chickweed, catchweed, birds-eye speedwell, corn, soybean, rice, wheat, beet and rapeseed were each spot-sown, and covered with about 1.5 cm of soil, then the plants were grown in a greenhouse at 25 to 30° C.
(§5) After they had grown for 14 days, emulsions of compounds of the present invention prepared according to compounding example 2 were diluted with water to give the specified dosages, and applied uniformly onto the stem and leaf parts with a small sprayer. 3 weeks after the pesticide treatment the effect on each type of plant was investigated on the basis of the assessment criteria of test example 1.
(§6) A: barnyard grass, B: bulrush, C: oval-leafed pondweed, D: crabgrass, E: green foxtail, F: barnyard grass, G: wild oat, H: black-grass, I: Italian ryegrass, J: common wind-grass, K: Indian mallow, L: redroot pigweed, M: fig-leafed goosefoot, N: chickweed, O: catchweed, p: birds-eye speedwell, a: transplanted rice, b: directly sown rice, c: corn, d: soybean, e: wheat, f: beet, g: rapeseed
(§7) Further, pesticide dosage (g/ha) indicates the concentration regulated such that treatment was with only the stated number of grams (g), when calculated per hectare (ha).

Data set [9] relates to wheat. Kind of data set: Test Example 4: foliar treatment, effect on crop; e: wheat. In outline: as §2
Data set [10] deals with rapeseed. In words: Test Example 4: foliar treatment, effect on crop; g: rapeseed. The following applies: treatment dosage 80 g/ha. The procedure:
as §3, §4, §5, §6, §7

The subject of data set [11] is barnyard grass. In words: Test Example 1: weedkilling efficacy, preemergent weed treatment in the submerged state; A: barnyard grass. The following applies: treatment dosage 320 g/ha. In outline:
(§8)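 Pre-emergence application onto floodwater (4 cm, alluvial soil) on the day of sowing, dose expressed as g/ha from diluted emulsion formulation. Weeds sown with 2.5-leaf transplanted rice as crop; plants held at 25–30 °C in greenhouse and scored against assessment criteria after 3 weeks.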

The subject of data set [12] is bulrush. In words: Test Example 1: weedkilling efficacy, preemergent weed treatment in the submerged state; B: bulrush. The following applies: treatment dosage 320 g/ha. Put shortly:
as §8

Data set [13] has as its system oval-leafed pondweed. Kind of data set: Test Example 1: weedkilling efficacy, preemergent weed treatment in the submerged state; C: oval-leafed pondweed. The following applies: treatment dosage 320 g/ha. In outline: as §8
For data set [14], the system named is transplanted rice. Kind of data set: Test Example 1: preemergent weed treatment in the submerged state, effect on crop; a: transplanted rice. The following applies: treatment dosage 320 g/ha. Put shortly: as §8
Data set [15] concerns barnyard grass. In words: Test Example 2: weedkilling efficacy, growth period weed treatment in the submerged state; A: barnyard grass. The conditions noted are these: treatment dosage 320 g/ha. Put shortly: (§9)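 Weeds treated at the 1-2 leaf stage by application of diluted emulsion onto floodwater (4 cm depth, alluvial soil) at specified g/ha. Grown in greenhouse at 25 to 30° C; herbicidal effect rated three weeks after treatment.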

The subject of data set [16] is bulrush. In words: Test Example 2: weedkilling efficacy, growth period weed treatment in the submerged state; B: bulrush. The conditions noted are these: treatment dosage 320 g/ha. Put shortly:
as §9

Data set [17] concerns oval-leafed pondweed. Kind of data set: Test Example 2: weedkilling efficacy, growth period weed treatment in the submerged state; C: oval-leafed pondweed. The conditions noted are these: treatment dosage 320 g/ha. In outline:
as §9

Data set [18] concerns wild oat. In words: Test Example 3: weedkilling efficacy through soil treatment; G: wild oat. The conditions noted are these: treatment dosage 320 g/ha. In outline:
as §1

Data set [19] relates to Indian mallow. In words: Test Example 3: weedkilling efficacy through soil treatment; K: Indian mallow. The conditions noted are these: treatment dosage 320 g/ha. In outline: as §1
The test system of data set [20] is redroot pigweed. Kind of data set: Test Example 3: weedkilling efficacy through soil treatment; L: redroot pigweed. The following applies: treatment dosage 320 g/ha. Put shortly:
as §1

Data set [21] concerns fig-leafed goosefoot. In words: Test Example 3: weedkilling efficacy through soil treatment; M: fig-leafed goosefoot. The following applies: treatment dosage 320 g/ha. Put shortly: as §1
The subject of data set [22] is chickweed. In words: Test Example 3: weedkilling efficacy through soil treatment; N: chickweed. The conditions noted are these: treatment dosage 320 g/ha. In outline:
as §1

The subject of data set [23] is catchweed. In words: Test Example 3: weedkilling efficacy through soil treatment; O: catchweed. The conditions noted are these: treatment dosage 320 g/ha. Put shortly:
as §1

Data set [24] concerns corn. In words: Test Example 3: soil treatment, effect on crop; c: corn. The following applies: treatment dosage 320 g/ha. Put shortly:
as §1

Data set [25] has as its system soybean. In words: Test Example 3: soil treatment, effect on crop; d: soybean. The conditions noted are these: treatment dosage 320 g/ha. Put shortly:
as §1

The test system of data set [26] is beet. Kind of data set: Test Example 3: soil treatment, effect on crop; f: beet. The following applies: treatment dosage 320 g/ha. In outline: as §1
For data set [27], the system named is wild oat. Kind of data set: Test Example 4: weedkilling efficacy by foliar treatment; G: wild oat. The conditions noted are these: treatment dosage 320 g/ha. In outline: as §2
In data set [28] the test system is Indian mallow. In words: Test Example 4: weedkilling efficacy by foliar treatment; K: Indian mallow. The following applies: treatment dosage 320 g/ha. In outline: as §2
Data set [29] relates to redroot pigweed. In words: Test Example 4: weedkilling efficacy by foliar treatment; L: redroot pigweed. The following applies: treatment dosage 320 g/ha. In outline: as §2
Data set [30] has as its system fig-leafed goosefoot. In words: Test Example 4: weedkilling efficacy by foliar treatment; M: fig-leafed goosefoot. The following applies: treatment dosage 320 g/ha. In outline: as §2
For data set [31], the system named is chickweed. Kind of data set: Test Example 4: weedkilling efficacy by foliar treatment; N: chickweed. The following applies: treatment dosage 320 g/ha. Put shortly: as §2
For data set [32], the system named is catchweed. Kind of data set: Test Example 4: weedkilling efficacy by foliar treatment; O: catchweed. The conditions noted are these: treatment dosage 320 g/ha. Put shortly: as §2
Data set [33] concerns birds-eye speedwell. Kind of data set: Test Example 4: weedkilling efficacy by foliar treatment; p: birds-eye speedwell. The conditions noted are these: treatment dosage 320 g/ha. Put shortly: as §2
In data set [34] the test system is corn. In words: Test Example 4: foliar treatment, effect on crop; c: corn. The conditions noted are these: treatment dosage 320 g/ha. In outline:
as §2

The test system of data set [35] is soybean. In words: Test Example 4: foliar treatment, effect on crop; d: soybean. The conditions noted are these: treatment dosage 320 g/ha. Put shortly: as §2
Data set [36] relates to beet. Kind of data set: Test Example 4: foliar treatment, effect on crop; f: beet. The conditions noted are these: treatment dosage 320 g/ha. Put shortly:
as §2

As to `CC1=C(c2ccccc2)C(=O)N(C(C)(C)C(=O)Nc2cc(Cl)ccn2)CO1` [B-2-28], the “H (black-grass) weedkilling efficacy grade” value in data set [1] (treatment dosage 80 g/ha) is 5 (weed kill ratio 90% or more, (practically complete withering)); in data set [6] (treatment dosage 80 g/ha) it was 5 (weed kill ratio 90% or more, (practically complete withering)). Also, the “I (Italian ryegrass) weedkilling efficacy grade” value is recorded as 5 (weed kill ratio 90% or more, (practically complete withering)) in data set [2] (treatment dosage 80 g/ha) and 5 (weed kill ratio 90% or more, (practically complete withering)) in [7] (treatment dosage 80 g/ha). The “J (common wind-grass) weedkilling efficacy grade” value in data set [3] (treatment dosage 80 g/ha) is given as 5 (weed kill ratio 90% or more, (practically complete withering)); in data set [8] (treatment dosage 80 g/ha) it was 5 (weed kill ratio 90% or more, (practically complete withering)). Also, the “e (wheat) effect on crop grade” value in [4] (treatment dosage 80 g/ha) and in data set [9] (treatment dosage 80 g/ha) was 0 (weed kill ratio 5% or less (practically no effect)) throughout. The “g (rapeseed) effect on crop grade” value was 0 (weed kill ratio 5% or less (practically no effect)) in [5] and 3 (weed kill ratio 40% or more, less than 70%) in [10].

In the case of `CC1=C(c2ccccc2)C(=O)N(C(C)(C)C(=O)Nc2cc(C)ccn2)CO1` [B-2-52], the “H (black-grass) weedkilling efficacy grade” value in data set [1] (treatment dosage 80 g/ha) is 4 (weed kill ratio 70% or more, less than 90%); in [6] (treatment dosage 80 g/ha) it was 2 (weed kill ratio 20% or more, less than 40%). Also, the “I (Italian ryegrass) weedkilling efficacy grade” value in data set [2] (treatment dosage 80 g/ha) is 5 (weed kill ratio 90% or more, (practically complete withering)); in data set [7] (treatment dosage 80 g/ha), 3 (weed kill ratio 40% or more, less than 70%). The “J (common wind-grass) weedkilling efficacy grade” value in data set [3] (treatment dosage 80 g/ha) is 5 (weed kill ratio 90% or more, (practically complete withering)); in data set [8] (treatment dosage 80 g/ha), 5 (weed kill ratio 90% or more, (practically complete withering)). Moreover, the “e (wheat) effect on crop grade” value in data set [4] (treatment dosage 80 g/ha) and in data set [9] (treatment dosage 80 g/ha) was 0 (weed kill ratio 5% or less (practically no effect)) throughout. The “g (rapeseed) effect on crop grade” value in data set [5] was 1 (weed kill ratio 5% or more, less than 20%); in data set [10] it was 0 (weed kill ratio 5% or less (practically no effect)).

Take `COC(=O)c1ccnc(NC(=O)C(C)(C)N2COC(C)=C(c3ccccc3)C2=O)c1` [B-2-61]: the “A (barnyard grass) weedkilling efficacy grade” value in [11] and in data set [15] was 0 (weed kill ratio 5% or less (practically no effect)) in each case. Also, the “B (bulrush) weedkilling efficacy grade” value was 0 (weed kill ratio 5% or less (practically no effect)) in [12] and 2 (weed kill ratio 20% or more, less than 40%) in [16]. The “C (oval-leafed pondweed) weedkilling efficacy grade” value is 4 (weed kill ratio 70% or more, less than 90%) in data set [13] and 2 (weed kill ratio 20% or more, less than 40%) in [17]. Moreover, the “a (transplanted rice) effect on crop grade” value in [14] is listed as 0 (weed kill ratio 5% or less (practically no effect)). The “G (wild oat) weedkilling efficacy grade” value in [18] and in [27] was 0 (weed kill ratio 5% or less (practically no effect)) throughout. Further, the “H (black-grass) weedkilling efficacy grade” value in data set [1] (treatment dosage 320 g/ha) is listed as 4 (weed kill ratio 70% or more, less than 90%); in data set [6] (treatment dosage 320 g/ha), 0 (weed kill ratio 5% or less (practically no effect)). The “I (Italian ryegrass) weedkilling efficacy grade” value is listed as 2 (weed kill ratio 20% or more, less than 40%) in data set [2] (treatment dosage 320 g/ha) and 0 (weed kill ratio 5% or less (practically no effect)) in data set [7] (treatment dosage 320 g/ha). The “J (common wind-grass) weedkilling efficacy grade” value in data set [3] (treatment dosage 320 g/ha) is listed as 5 (weed kill ratio 90% or more, (practically complete withering)); in [8] (treatment dosage 320 g/ha), 1 (weed kill ratio 5% or more, less than 20%). The “K (Indian mallow) weedkilling efficacy grade” value in [19] and in data set [28] was 0 (weed kill ratio 5% or less (practically no effect)) throughout. Further, the “L (redroot pigweed) weedkilling efficacy grade” value in data set [20] and in [29] was 0 (weed kill ratio 5% or less (practically no effect)) each time. For the same molecule, the “M (fig-leafed goosefoot) weedkilling efficacy grade” value in data set [21] and in data set [30] was 0 (weed kill ratio 5% or less (practically no effect)) throughout. The “N (chickweed) weedkilling efficacy grade” value in data set [22] and in [31] was 0 (weed kill ratio 5% or less (practically no effect)) each time. Also, the “O (catchweed) weedkilling efficacy grade” value in data set [23] and in data set [32] was 0 (weed kill ratio 5% or less (practically no effect)) each time. For the same molecule, the “c (corn) effect on crop grade” value in data set [24] and in data set [34] was 0 (weed kill ratio 5% or less (practically no effect)) in each case. In addition, the “d (soybean) effect on crop grade” value in [25] and in data set [35] was 0 (weed kill ratio 5% or less (practically no effect)) throughout. The “e (wheat) effect on crop grade” value in data set [4] (treatment dosage 320 g/ha) and in data set [9] (treatment dosage 320 g/ha) was 0 (weed kill ratio 5% or less (practically no effect)) each time. Also, the “f (beet) effect on crop grade” value in data set [26] was 0 (weed kill ratio 5% or less (practically no effect)); in data set [36], 2 (weed kill ratio 20% or more, less than 40%). Also, in data set [33], the “P (birds-eye speedwell) weedkilling efficacy grade” value was 2 (weed kill ratio 20% or more, less than 40%).
